# Measured values published in PubChem BioAssay (NCI).
#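 Where inhibition never reached the appropriate level, the endpoint shown equals the highest concentration tested. Otherwise, values were interpolated linearly from a five-concentration, 48-hour dose response in 96-well plates. GI50: concentration for 50% inhibition of growth. The concentration for full growth arrest is given as TGI.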
# Experiments:
# Test in all cases: inhibition of tumour cell growth, NCI panel, 48 h
# SF-295 CNS = system: SF-295 CNS
# T-47D breast = system: T-47D breast
# HT29 colon = system: HT29 colon
# HCC-2998 colon = system: HCC-2998 colon
# HOP-62 NSCLC = system: HOP-62 NSCLC
# A549 NSCLC = system: A549 NSCLC
# MALME-3M melanoma = system: MALME-3M melanoma
# NCI-H460 lung = system: NCI-H460 lung
# NCI-H522 lung = system: NCI-H522 lung
# HS 578T breast = system: HS 578T breast
# ACHN renal = system: ACHN renal
# OVCAR-3 ovarian = system: OVCAR-3 ovarian
# U251 CNS = system: U251 CNS
# SNB-19 CNS = system: SNB-19 CNS
# OVCAR-5 ovarian = system: OVCAR-5 ovarian
# EKVX NSCLC = system: EKVX NSCLC
# SR leukemia = system: SR leukemia
# SW-620 colon = system: SW-620 colon
# SK-MEL-2 melanoma = system: SK-MEL-2 melanoma
# SNB-75 CNS = system: SNB-75 CNS
# RXF 393 renal = system: RXF 393 renal
# SK-MEL-28 melanoma = system: SK-MEL-28 melanoma
# HL-60(TB) leukemia = system: HL-60(TB) leukemia
# LOX IMVI melanoma = system: LOX IMVI melanoma
# A498 renal = system: A498 renal
# NCI-H23 lung = system: NCI-H23 lung
# SK-MEL-5 melanoma = system: SK-MEL-5 melanoma
# NCI-H226 lung = system: NCI-H226 lung
# SK-OV-3 ovarian = system: SK-OV-3 ovarian
compound,measurement,setting,value
CCn1ccnc1C(=O)/C=C/c1ccc(CC(=O)Nc2ccc(F)cc2)cc1,GI50,SF-295 CNS,4.41 µM
same,TGI,SF-295 CNS,> 16.7 µM
same,GI50,T-47D breast,3.79 µM
same,TGI,T-47D breast,> 16.7 µM
same,GI50,HT29 colon,5.64 µM
same,TGI,HT29 colon,> 16.7 µM
same,GI50,HCC-2998 colon,5.1 µM
same,TGI,HCC-2998 colon,> 16.7 µM
same,GI50,HOP-62 NSCLC,3.92 µM
same,TGI,HOP-62 NSCLC,9.93 µM
same,GI50,A549 NSCLC,4.16 µM
same,TGI,A549 NSCLC,12.7 µM
same,GI50,MALME-3M melanoma,> 16.7 µM
same,TGI,MALME-3M melanoma,> 16.7 µM
same,GI50,NCI-H460 lung,2640 nM
same,TGI,NCI-H460 lung,6.51 µM
same,GI50,NCI-H522 lung,3.92 µM
same,TGI,NCI-H522 lung,10.2 µM
same,GI50,HS 578T breast,5.36 µM
same,TGI,HS 578T breast,> 16.7 µM
same,GI50,ACHN renal,3.95 µM
same,TGI,ACHN renal,11.7 µM
same,GI50,OVCAR-3 ovarian,3.92 µM
same,TGI,OVCAR-3 ovarian,> 16.7 µM
same,GI50,U251 CNS,1880 nM
same,TGI,U251 CNS,7.94 µM
same,GI50,SNB-19 CNS,3.58 µM
same,TGI,SNB-19 CNS,> 16.7 µM
same,GI50,OVCAR-5 ovarian,4.97 µM
same,TGI,OVCAR-5 ovarian,> 16.7 µM
same,GI50,EKVX NSCLC,3.59 µM
same,TGI,EKVX NSCLC,12.2 µM
same,GI50,SR leukemia,529 nM
same,TGI,SR leukemia,11.1 µM
same,GI50,SW-620 colon,4.29 µM
same,TGI,SW-620 colon,> 16.7 µM
same,GI50,SK-MEL-2 melanoma,6.26 µM
same,TGI,SK-MEL-2 melanoma,> 16.7 µM
same,GI50,SNB-75 CNS,2810 nM
same,TGI,SNB-75 CNS,> 16.7 µM
same,GI50,RXF 393 renal,3.39 µM
same,TGI,RXF 393 renal,8.66 µM
same,GI50,SK-MEL-28 melanoma,4.92 µM
same,TGI,SK-MEL-28 melanoma,> 16.7 µM
same,GI50,HL-60(TB) leukemia,3.18 µM
same,TGI,HL-60(TB) leukemia,10.9 µM
same,GI50,LOX IMVI melanoma,561 nM
same,TGI,LOX IMVI melanoma,2830 nM
same,GI50,A498 renal,3.73 µM
same,TGI,A498 renal,15.5 µM
same,GI50,NCI-H23 lung,4.25 µM
same,TGI,NCI-H23 lung,> 16.7 µM
same,GI50,SK-MEL-5 melanoma,5.74 µM
same,TGI,SK-MEL-5 melanoma,> 16.7 µM
same,GI50,NCI-H226 lung,3.61 µM
same,TGI,NCI-H226 lung,9.53 µM
same,GI50,SK-OV-3 ovarian,6.97 µM
same,TGI,SK-OV-3 ovarian,> 16.7 µM
